Each structure is given as a SMILES string. Where “and” joins values, the source holds several entries; their conditions need not be identical. Equal entries are not always repeated. A value given as a limit tells only on which side of the number the result lay.

The values that follow come from BindingDB's records for doi:10.1016/j.bioorg.2016.11.011 (Tehran University of Medical Sciences, 2017).

The target in assay [1] is Carboxylic ester hydrolase (Equus caballus, UniProt Q9N1N9). The assay is described as follows: AChE and BChE Inhibition Assay. The settings on record: pH 8; 25 °C. On the procedure:
(§1) In vitro anti-AChE activity was performed based on the modified Ellman's method [Ellman et al., Biochem. Pharmacol., […]]. […] Each well contained 50 μL potassium phosphate buffer (KH2PO4/K2HPO4, 0.1 M, pH 8), 25 μL prepared sample as described above, 25 μL enzyme with final concentration of 0.22 U/mL in buffer. They were preincubated for 15 min at room temperature, and then […] DTNB (3 mM in buffer) was added. […] The IC50 values were determined graphically from inhibition curves (log inhibitor concentration vs. percent of inhibition). A control experiment was performed under the same conditions without inhibitor and the blank contained buffer, water, DTNB, and substrate. The described method was also used for BChE inhibition assay.

In a further assay the target is Acetylcholinesterase (Electrophorus electricus, UniProt O42275). The assay is described as follows: AChE and BChE Inhibition Assay. The following applies: pH 8; 25 °C. On the procedure:
as §1

Sequence of Acetylcholinesterase (O42275 whole entry): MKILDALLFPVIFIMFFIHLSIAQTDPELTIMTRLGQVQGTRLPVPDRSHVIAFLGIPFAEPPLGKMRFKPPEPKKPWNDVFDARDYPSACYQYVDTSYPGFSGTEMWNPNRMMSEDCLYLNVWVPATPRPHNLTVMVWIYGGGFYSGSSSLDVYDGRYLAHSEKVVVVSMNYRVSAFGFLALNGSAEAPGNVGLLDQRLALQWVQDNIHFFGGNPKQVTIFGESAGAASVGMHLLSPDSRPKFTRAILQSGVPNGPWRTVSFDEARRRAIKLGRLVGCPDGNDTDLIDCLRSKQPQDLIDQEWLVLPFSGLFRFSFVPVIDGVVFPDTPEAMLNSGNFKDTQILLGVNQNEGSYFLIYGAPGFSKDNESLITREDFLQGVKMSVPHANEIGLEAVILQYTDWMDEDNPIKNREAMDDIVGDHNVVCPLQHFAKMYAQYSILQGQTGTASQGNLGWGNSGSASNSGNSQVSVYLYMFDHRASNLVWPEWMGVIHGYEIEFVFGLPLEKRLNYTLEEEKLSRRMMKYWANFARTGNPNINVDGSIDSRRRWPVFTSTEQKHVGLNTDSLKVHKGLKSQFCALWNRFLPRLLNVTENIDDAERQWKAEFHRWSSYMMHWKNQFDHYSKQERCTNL
Sequence of Carboxylic ester hydrolase (Q9N1N9 whole entry): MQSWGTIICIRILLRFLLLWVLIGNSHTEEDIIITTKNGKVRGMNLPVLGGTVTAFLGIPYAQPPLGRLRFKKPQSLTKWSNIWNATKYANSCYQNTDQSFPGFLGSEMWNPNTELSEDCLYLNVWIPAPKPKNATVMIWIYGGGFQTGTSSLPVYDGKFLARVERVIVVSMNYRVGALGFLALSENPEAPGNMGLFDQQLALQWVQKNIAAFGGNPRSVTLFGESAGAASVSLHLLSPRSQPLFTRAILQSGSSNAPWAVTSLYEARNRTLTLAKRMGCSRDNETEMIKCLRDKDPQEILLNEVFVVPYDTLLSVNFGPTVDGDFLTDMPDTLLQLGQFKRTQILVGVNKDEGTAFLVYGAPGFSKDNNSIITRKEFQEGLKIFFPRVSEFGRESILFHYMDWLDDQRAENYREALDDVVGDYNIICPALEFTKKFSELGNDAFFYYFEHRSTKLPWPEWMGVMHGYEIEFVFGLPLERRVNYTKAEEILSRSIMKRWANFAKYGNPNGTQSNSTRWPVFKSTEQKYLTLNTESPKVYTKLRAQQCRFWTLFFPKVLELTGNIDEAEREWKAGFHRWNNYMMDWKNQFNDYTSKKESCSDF

As for `COc1cccc2cc(C(=O)NCc3cn(Cc4ccccc4C)nn3)c(=O)oc12` [8-Methoxy-N-((1-(2-methylbenzyl)-1H-1,2,3-triazol-4-yl)methyl)-2-oxo-2H-chromene-3-carboxamide (6l)], the half-inhibitory concentration (IC50) in assay [1] was > 100 µM; at Acetylcholinesterase, 24.1 µM.

For `COc1cccc2cc(C(=O)NCc3cn(Cc4cccc(Cl)c4Cl)nn3)c(=O)oc12` [N-((1-(2,3-dichlorobenzyl)-1H-1,2,3-triazol-4-yl)methyl)-8-methoxy-2-oxo-2H-chromene-3-carboxamide (6n)], the figures for the half-maximal inhibitory concentration (IC50) (in assay [1]; on Acetylcholinesterase) were > 100 µM and 33.8 µM, respectively.

For `O=C(NCc1cnnn1Cc1cccc(Cl)c1Cl)c1cc2ccccc2oc1=O` [N-((1-(2,3-dichlorobenzyl)-1H-1,2,3-triazol-5-yl)methyl)-2-oxo-2H-chromene-3-carboxamide (6h)], the IC50 in assay [1] amounted to 67 µM; against Acetylcholinesterase, 20.2 µM.

Turning to `O=C(NCc1cnnn1Cc1ccccc1Br)c1cc2ccccc2oc1=O` [N-((1-(2-bromobenzyl)-1H-1,2,3-triazol-5-yl)methyl)-2-oxo-2H-chromene-3-carboxamide (6j)], the 50% inhibitory concentration (IC50) in assay [1] is 31 µM and > 100 µM.

`COc1cccc2cc(C(=O)NCc3cn(Cc4ccccc4Cl)nn3)c(=O)oc12` [N-((1-(2-chlorobenzyl)-1H-1,2,3-triazol-4-yl)methyl)-8-methoxy-2-oxo-2H-chromene-3-carboxamide (6m)]: the IC50 in assay [1] is 96.1 µM; on Acetylcholinesterase, 15.4 µM.

For `O=C(NCc1cnnn1Cc1ccccc1Cl)c1cc2ccccc2oc1=O` [N-((1-(2-chlorobenzyl)-1H-1,2,3-triazol-5-yl)methyl)-2-oxo-2H-chromene-3-carboxamide (6f)], the figures for the half-maximal inhibitory concentration (IC50) (in assay [1]; at Acetylcholinesterase) were > 100 µM and 34 µM, respectively.

Regarding `Cc1ccccc1Cn1nncc1CNC(=O)c1cc2ccccc2oc1=O` [N-((1-(2-methylbenzyl)-1H-1,2,3-triazol-5-yl)methyl)-2-oxo-2H-chromene-3-carboxamide (6b)], the half-maximal inhibitory concentration (IC50) in assay [1] is > 100 µM; against Acetylcholinesterase, 78.9 µM.

Take `COc1cccc2cc(C(=O)NCc3cn(Cc4ccc(Cl)c(Cl)c4)nn3)c(=O)oc12` [N-((1-(3,4-dichlorobenzyl)-1H-1,2,3-triazol-4-yl)methyl)-8-methoxy-2-oxo-2H-chromene-3-carboxamide (6o)]: the IC50 in assay [1] is > 100 µM; at Acetylcholinesterase, 25.5 µM.

Turning to `O=C(NCc1cnnn1Cc1ccc(Cl)c(Cl)c1)c1cc2ccccc2oc1=O` [N-((1-(3,4-dichlorobenzyl)-1H-1,2,3-triazol-5-yl)methyl)-2-oxo-2H-chromene-3-carboxamide (6i)], the results for the half-inhibitory concentration (IC50) (in assay [1]; at Acetylcholinesterase) were > 100 µM and 16.7 µM, respectively.

As to `O=C(NCc1cnnn1Cc1cccc(Cl)c1)c1cc2ccccc2oc1=O` [N-((1-(3-chlorobenzyl)-1H-1,2,3-triazol-5-yl)methyl)-2-oxo-2H-chromene-3-carboxamide (6g)], the IC50 in assay [1] was > 0.1 µM; at Acetylcholinesterase, 92.8 µM.

Regarding `O=C(NCc1cnnn1Cc1cccc(F)c1)c1cc2ccccc2oc1=O` [N-((1-(3-fluorobenzyl)-1H-1,2,3-triazol-5-yl)methyl)-2-oxo-2H-chromene-3-carboxamide (6d)], the values for the IC50 (in assay [1]; at Acetylcholinesterase) were > 100 µM and 48.1 µM, respectively.

For `O=C(NCc1cn(Cc2ccc(Br)cc2)nn1)c1cc2ccccc2oc1=O` [N-((1-(4-bromobenzyl)-1H-1,2,3-triazol-4-yl)methyl)-2-oxo-2H-chromene-3-carboxamide (6k)], the half-inhibitory concentration (IC50) in assay [1] is > 100 µM and 75.3 µM.

As to `O=C(NCc1cnnn1Cc1ccc(F)cc1)c1cc2ccccc2oc1=O` [N-((1-(4-fluorobenzyl)-1H-1,2,3-triazol-5-yl)methyl)-2-oxo-2H-chromene-3-carboxamide (6e)], the IC50 (in assay [1]; against Acetylcholinesterase) was > 100 µM each time.

Turning to `Cc1ccc(Cn2nncc2CNC(=O)c2cc3ccccc3oc2=O)cc1` [N-((1-(4-methylbenzyl)-1H-1,2,3-triazol-5-yl)methyl)-2-oxo-2H-chromene-3-carboxamide (6c)], the concentration for half-maximal inhibition (IC50) (in assay [1]; against Acetylcholinesterase) was > 100 µM each time.

For `O=C(NCc1cnnn1Cc1ccccc1)c1cc2ccccc2oc1=O` [N-((1-benzyl-1H-1,2,3-triazol-5-yl)methyl)-2-oxo-2Hchromene-3-carboxamide (6a)], the IC50 (in assay [1]; at Acetylcholinesterase) was > 100 µM in each case.

Broadly, the IC50 is the point on the concentration scale where inhibition reaches its midpoint. A lower IC50 goes with higher potency.
